In patent US20230105212A1, “BIPHENYL DERIVATIVE INHIBITOR, PREPARATION METHOD THEREFOR AND USE THEREOF” (SHANGHAI HANSOH BIOMEDICAL CO., LTD., priority 2020, published 2023):
Where two headings read alike, the source gives them in different places.

Key:
[1] = Pharmacokinetics test in Balb/C mice; format: in vivo; details: male, mouse, po, p.o. 5 mg/kg, plasma; for MRT inf: read-out: Average residence time MRT0−∞; for AUC(0-t): read-out: Curve area AUC0−t; for Cmax: read-out: Drug concentration in plasma Cmax; for half-life: read-out: Half life t1/2 (converted); for Tmax: read-out: Peak time tmax
Protocol: Test Embodiment 6. Pharmacokinetics Test in Balb/C Mice
Taking Balb/C mice as the test animals, the pharmacokinetic behavior in the plasma of mice of the following compound embodiments was studied when orally administered at a dose of 5 mg/kg.
Balb/C Mouse 6/embodiment, male, Shanghai Jisijie Laboratory Animal Co., Ltd., animal production license number (SCXK (Shanghai) 2013-0006 No. 311620400001794).
0.5% HPMC (1% Tween 80), dissolved by sonication, to prepare a clear solution or a homogeneous suspension.
Balb/C mice, male; p.o. after overnight fasting, respectively, at a dose of 5 mg/kg, administered in a volume of 10 mL/kg.
Before and after administration of mice, at 0, 0.5, 1, 2, 4, 6, 8 and 24 hours, 0.1 mL of blood was collected from the orbit, placed in an EDTA-K2 test tube, and centrifuged at 6000 rpm at 4° C. for 6 min to separate the plasma, stored at −80° C.
1) 40 μL of plasma samples were added to 160 μL of acetonitrile for precipitation, mixed and centrifuged at 3500×g for 5 to 20 minutes.
2) 100 μL of the supernatant solution after treatment was taken for LC/MS/MS to analyze the concentration of the compounds to be tested.
2.6 Liquid Phase Analysis • Liquid phase condition: Shimadzu LC-20AD pump • MS conditions: AB Sciex API 4000 Mass Spectrometer • Chromatographic column: phenomenex Gemiu 5 μm C18 50×4.6 mm • Mobile phase: A solution was aqueous 0.1% formic acid solution, B solution was acetonitrile • Flow rate: 0.8 mL/min • Elution time: 0 to 4.0 minutes, the eluent was as follows:
The main parameters of pharmacokinetics were calculated with WinNonlin 8.2, and the results of the mice pharmacokinetic experiments were shown in the following table: […]

[2] = target: T1, PD-L1 protein on the surface of MC38-hPDL1 tumor cells (Homo sapiens, UniProt Q9NZQ7); assay: Induction of endocytosis of PD-L1 on the surface of tumor cells (flow cytometry); format: cell-based; details: for Emax: MC38-hPDL1 cells, read-out: MC38 maximum endocytosis rate
T1 construct: expressed in transfected cells; host or cells: MC38-hPDL1 (mouse colon cancer cells)
T1 sequence (Q9NZQ7 19-290): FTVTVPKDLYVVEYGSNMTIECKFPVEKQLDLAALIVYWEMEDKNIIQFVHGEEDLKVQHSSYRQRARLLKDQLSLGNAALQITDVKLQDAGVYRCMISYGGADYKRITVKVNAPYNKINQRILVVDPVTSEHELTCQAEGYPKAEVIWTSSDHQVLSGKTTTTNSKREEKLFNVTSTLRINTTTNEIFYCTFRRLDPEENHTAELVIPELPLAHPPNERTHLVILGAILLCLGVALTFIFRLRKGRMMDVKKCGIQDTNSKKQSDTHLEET
How it was run: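 MC38-hPDL1 mouse colon cancer cells overexpressing human PD-L1 were exposed to compound dilutions for 16 h at 37 °C. Surface PD-L1 was then stained with PE anti-human CD274 for 30 min at room temperature and measured by flow cytometry. Endocytosis rate versus concentration was fitted by nonlinear regression to give IC50.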

human PD-L1 protein = target: T2, human PD-L1 protein (Homo sapiens, UniProt Q9NZQ7); assay: Thermal shift: melting temperature of PD-L1 protein; format: binding; details: read-out: ΔTm (° C.)
T2 construct: purchased Acro Biosystems PD1-H5229
T2 sequence (Q9NZQ7 19-238 limits assumed): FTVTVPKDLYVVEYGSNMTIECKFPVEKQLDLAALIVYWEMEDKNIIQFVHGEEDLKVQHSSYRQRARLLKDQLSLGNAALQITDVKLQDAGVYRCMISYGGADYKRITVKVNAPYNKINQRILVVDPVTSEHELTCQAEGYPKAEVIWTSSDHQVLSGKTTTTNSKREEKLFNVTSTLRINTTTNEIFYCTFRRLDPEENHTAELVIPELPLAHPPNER
How it was run: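 Human PD-L1 at 2 μM final was tested in […], 150 mM NaCl with SYPRO Orange, heated 25→95 °C at 0.03 °C/s in a PCR melt-curve run. Tm was taken per treatment; ΔTm is the shift relative to DMSO vehicle.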

[3] = compound 10 μM, PD-L1 protein 2 μM, Tm minus DMSO vehicle control
[4] = inducing endocytosis of PD-L1, MC38-hPDL1 cells, 16 hours incubation, read-out: MC38 IC50

SMILES | MRT inf [1] [h] | AUC(0-t) [1] [ng·h/mL] | Cmax [1] [ng/mL] | half-life [1] [h] | Tmax [1] [h] | Emax ([2]; 16 hours incubation) [%] | ΔTm at 10 µM (human PD-L1 protein; [3]) [°C] | IC50 [2, 4] [nM] | IC50 [2] [nM] | ΔTm at 10 µM (human PD-L1 protein) [°C]
COc1nc(-c2cccc(-c3cccc(NC(=O)c4nc5c(n4C)CCN(C)C5)c3Cl)c2Cl)ccc1CN1CC(C(=O)N(C)C)C1 [Embodiment 183, N-(2,2′-Dichloro-3′-(5-((3-(dimethylcarbamoyl)azetidin-1-yl)methyl)-6-methoxypyridin-2-yl)-[1,1′-biphenyl]-3-yl)-1,5-dimethyl-4,5,6,7-tetrahydro-1H-imidazo[4,5-c]pyridine-2-carboxamide] | 16.8 | 1190 | 75 | 10.9 | 6 | 95 | 21 |  |  | 
COc1nc(-c2cccc(-c3cccc(NC(=O)c4nc5c(n4C)CCN(C)C5)c3Cl)c2Cl)ccc1CN[C@H]1CCOC[C@@H]1O (relative stereo) [Embodiment 175, N-(2,2′-Dichloro-3′-(5-((((3,4-trans)-3-hydroxytetrahydro-2H-pyran-4-yl)amino)methyl)-6-methoxypyridin-2-yl)-[1,1′-biphenyl]-3-yl)-1,5-dimethyl-4,5,6,7-tetrahydro-1H-imidazo[4,5-c]pyridine-2-carboxamide] |  | 1630 | 132 |  | 6 | 98 | 18 | 0.4 |  | 
COc1nc(-c2cccc(-c3cccc(NC(=O)c4nc5c(n4C)CCN(C)C5)c3Cl)c2Cl)ccc1CN1CC(NC(C)=O)C1 [Embodiment 180, N-(3′-(5-((3-Acetylaminoazetidin-1-yl)methyl)-6-methoxypyridin-2-yl)-2,2′-dichloro-[1,1′-biphenyl]-3-yl)-1,5-dimethyl-4,5,6,7-tetrahydro-1H-imidazo[4,5-c]pyridine-2-carboxamide] | 12.9 | 887 | 116 | 9.5 | 2 | 96 | 20.6 | 0.6 |  | 
COc1nc(-c2cccc(-c3cccc(NC(=O)c4nc5c(n4C)CCN(C)C5)c3Cl)c2Cl)ccc1CN1CC2(CCC(=O)N2)C1 [Embodiment 126, N-(2,2′-Dichloro-3′-(6-methoxy-5-((6-carbonyl-2,5-diazaspiro[3.4]octan-2-yl)methyl)pyridin-2-yl)-[1,1′-biphenyl]-3-yl)-1,5-dimethyl-4,5,6,7-tetrahydro-1H-imidazo[4,5-c]pyridine-2-carboxamide] | 12.3 | 677 | 54 | 8.4 | 2 | 97 | 17.1 | 1 |  | 
COc1nc(-c2cccc(-c3cccc(NC(=O)c4nc5c(n4C)CCN(C)C5)c3Cl)c2Cl)cnc1CN1CC(NC(C)=O)C1 [Embodiment 218, N-(3′-(5-((3-Acetylaminoazetidin-1-yl)methyl)-6-methoxypyrazin-2-yl)-2,2′-dichloro-[1,1′-biphenyl]-3-yl)-1,5-dimethyl-4,5,6,7-tetrahydro-1H-imidazo[4,5-c]pyridine-2-carboxamide] |  |  |  |  |  | 95 | 13.7 |  |  | 
COc1nc(-c2cccc(-c3cccc(NC(=O)c4nc5c(n4C)CCN(C)C5)c3Cl)c2Cl)ccc1CNC1COC1 [Embodiment 114, N-(2,2′-Dichloro-3′-(6-methoxy-5-((oxetan-3-ylamino)methyl)pyridin-2-yl)-[1,1′-biphenyl]-3-yl)-1,5-dimethyl-4,5,6,7-tetrahydro-1H-imidazo[4,5-c]pyridine-2-carboxamide] | 11.3 | 596 | 48 | 9 | 2 | 95 | 17.9 | 1.2 |  | 
COc1nc(-c2cccc(-c3cccc(NC(=O)c4nc5c(n4C)CCN(C)C5)c3Cl)c2Cl)cnc1CN1CC2(C1)CN(C(C)=O)C2 [Embodiment 152, N-(3′-(5-((6-Acetyl-2,6-diazaspiro[3.3]heptan-2-yl)methyl)-6-methoxypyrazin-2-yl)-2,2′-dichloro-[1,1′-biphenyl]-3-yl)-1,5-dimethyl-4,5,6,7-tetrahydro-1H-imidazo[4,5-c]pyridine-2-carboxamide] | 10 | 1140 | 93 |  | 8 | 97 | 16.8 | 0.6 |  | 
COc1nc(-c2cccc(-c3cccc(NC(=O)c4nc5c(n4C)CCN(C)C5)c3Cl)c2Cl)ccc1CN1CC2(C1)CN(S(C)(=O)=O)C2 [Embodiment 192] |  |  |  |  |  | 97 | 14 | 0.3 |  | 
CNC(=O)CNCc1cnc(C(=O)Nc2cccc(-c3cccc(NC(=O)c4nc5c(n4C)CCN(C)C5)c3Cl)c2C)cc1OC [Embodiment 95, N-(2-Chloro-3′-(4-methoxy-5-(((2-(methylamino)-2-carbonylethyl)amino)methyl)picolinamido)-2′-methyl-[1,1′-biphenyl]-3-yl)-1,5-dimethyl-4,5,6,7-tetrahydro-1H-imidazo[4,5-c]pyridine-2-carboxamide] |  |  |  |  |  | 94 | 14.4 | 2.3 |  | 
COc1nc(-c2cccc(-c3cccc(NC(=O)c4nc5c(n4C)CCN(C)C5)c3Cl)c2Cl)ncc1CN1CC(CNC(C)=O)C1 [Embodiment 225, N-(3′-(5-((3-(Acetylaminomethyl)azetidin-1-yl)methyl)-4-methoxypyrimidin-2-yl)-2,2′-dichloro-[1,1′-biphenyl]-3-yl)-1,5-dimethyl-4,5,6,7-tetrahydro-1H-imidazo[4,5-c]pyridine-2-carboxamide] | 10.6 | 1920 |  | 9.2 | 2 | 93 |  |  |  | 
COc1nc(-c2cccc(-c3cccc(NC(=O)c4nc5c(n4C)CCN(C)C5)c3Cl)c2Cl)ccc1CN1CC(O)(CO)C1 [Embodiment 173, N-(2,2′-Dichloro-3′-(5-((3-hydroxy-3-(hydroxymethyl)azetidin-1-yl)methyl)-6-methoxypyridin-2-yl)-[1,1-biphenyl]-3-yl)-1,5-dimethyl-4,5,6,7-tetrahydro-1H-imidazo[4,5-c]pyridine-2-carboxamide] |  |  |  |  |  | 97 | 13.5 | 0.9 |  | 
CCC(=O)N1CC2(CN(Cc3ccc(-c4cccc(-c5cccc(NC(=O)c6nc7c(n6C)CCN(C)C7)c5Cl)c4Cl)nc3OC)C2)C1 [Embodiment 188, N-(2,2′-Dichloro-3′-(6-methoxy-5-((6-propionyl-2,6-diazaspiro[3.3]heptan-2-yl)methyl)pyridin-2-yl)-[1,1′-biphenyl]-3-yl)-1,5-dimethyl-4,5,6,7-tetrahydro-1H-imidazo[4,5-c]pyridine-2-carboxamide] |  |  |  |  |  | 97 |  |  | 0.4 | 16.5
COc1nc(-c2cccc(-c3cccc(NC(=O)c4nc5c(n4C)CCN(C)C5)c3Cl)c2Cl)ccc1CNC(CO)CO [Embodiment 174, N-(2,2′-Dichloro-3′-(5-(((1,3-dihydroxypropan-2-yl)amino)methyl)-6-methoxypyridin-2-yl)-[1,1′-biphenyl]-3-yl)-1,5-dimethyl-4,5,6,7-tetrahydro-1H-imidazo[4,5-c]pyridine-2-carboxamide] |  |  |  |  |  | 97 | 16.6 | 1 |  | 
